Consider 18 molecules from US11780826B2 (Amgen Inc., priority 2017, dated 2023).

The subject of this experiment is Bovine cardiac myofibrils. In words: In vitro model of dose-dependent myofibril ATPase modulation (AC1.4, pyruvate kinase/lactate dehydrogenase-coupled ATPase assay at pCa25). The note with it: concentration at which ATPase activity was 1.4-fold higher than the bottom of the dose curve, mean of a minimum of two independent tests. Type of experiment: biochemical. The method in brief:
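Bovine cardiac myofibrils, detergent-treated; 0.25-1.0 mg/ml. Buffer: K-PIPES 12 mM, MgCl2 2 mM, DTT 1 mM, BSA 0.1 mg/ml, pH 6.80, 22° C; Ca2+ set by EGTA/CaCl2. ATP 1 mM, NADH/PEP-coupled, A340. 4-parameter fit; n≥2.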
`O=C(NCc1ccc(C(F)(F)F)cc1F)[C@H]1CCCN1C(=O)[C@H]1CCCN(S(=O)(=O)N2CC(O)(C(F)F)C2)C1` [Example 296, 1-(((3S)-1-((3-(difluoromethyl)-3-hydroxy-1-azetidinyl)sulfonyl)-3-piperidinyl)carbonyl)-N-(2-fluoro-4-(trifluoromethyl)benzyl)-D-prolinamide] registered an AC1.4 of 0.7679 µM.

Take `N#CC1CN(S(=O)(=O)N2CCC[C@H](C(=O)N3CCC[C@@H]3C(=O)N[C@H](CC(F)(F)F)c3ccc(C(F)(F)F)cc3)C2)C1` [Example 28, 1-(((3S)-1-((3-cyano-1-azetidinyl)sulfonyl)-3-piperidinyl)carbonyl)-N-((1R)-3,3,3-trifluoro-1-(4-(trifluoromethyl)phenyl)propyl)-D-prolinamide]: the AC1.4 came to 0.03125 µM.

The molecule `CC(C)c1cccc(C(=O)N2CCC[C@@H]2C(=O)N[C@@H](c2ccc(C(F)(F)F)cc2F)C2CC2)c1` [Example 414, N-((R)-cyclopropyl(2-fluoro-4-(trifluoromethyl)phenyl)methyl)-1-(3-(2-propanyl)benzoyl)-D-prolinamide] yielded an AC1.4 of 1.515 µM.

Molecule `O=C(NCc1ccc(C(F)(F)F)cc1)[C@H]1CCCN1C(=O)[C@H]1CCCN(S(=O)(=O)N2CC(OC(F)(F)F)C2)C1` [Example 535, 1-(((3S)-1-((3-(trifluoromethoxy)-1-azetidinyl)sulfonyl)-3-piperidinyl)carbonyl)-N-(4-(trifluoromethyl)benzyl)-D-prolinamide] had an AC1.4 of 2.69 µM.

In the case of `COC[C@H](NC(=O)[C@H]1CCCN1C(=O)[C@H]1CCCN(S(=O)(=O)N2CC(C#N)C2)C1)c1cccc(C(F)(F)F)c1` [Example 388, 1-(((3S)-1-((3-cyano-1-azetidinyl)sulfonyl)-3-piperidinyl)carbonyl)-N-((1R)-2-methoxy-1-(3-(trifluoromethyl)phenyl)ethyl)-D-prolinamide,1-(((3S)-1-((3-cyano-1-azetidinyl)sulfonyl)-3-piperidinyl)carbonyl)-N-((1S)-2-methoxy-1-(3-(trifluoromethyl)phenyl)ethyl)-D-prolinamide], the AC1.4 worked out at 1.3405 µM.

`N#CC1CN(S(=O)(=O)N2CCC[C@H](C(=O)N3CCC[C@@H]3C(=O)NCC3CCC(C(F)(F)F)CC3)C2)C1` (stereo partly drawn) [Example 590, 1-(((3S)-1-((3-cyano-1-azetidinyl)sulfonyl)-3-piperidinyl)carbonyl)-N-((cis-4-(trifluoromethyl)cyclohexyl)methyl)-D-prolinamide,1-(((3S)-1-((3-cyano-1-azetidinyl)sulfonyl)-3-piperidinyl)carbonyl)-N-((4-(trifluoromethyl)cyclohexyl)methyl)-D-prolinamide] yielded an AC1.4 of 3.4675 µM.

Molecule `CS(=O)(=O)c1cc(C(=O)N2[C@@H](C(=O)N[C@@H](c3cc(F)c(C(F)(F)F)cc3F)C3CC3)C[C@@H]3C[C@@H]32)ccn1` [Example 731, (1S,3R,5S)-N-((R)-cyclopropyl(2,5-difluoro-4-(trifluoromethyl)phenyl)methyl)-2-((2-(methylsulfonyl)-4-pyridinyl)carbonyl)-2-azabicyclo[3.1.0]hexane-3-carboxamide] yielded an AC1.4 of 6.763 µM.

As for `O=C(N[C@@H](c1ccc(C(F)(F)F)cc1F)C1CC1)[C@H]1C[C@H]2C[C@H]2N1C(=O)c1cc(C(F)(F)F)ccn1` [Example 573, (1R,3R,5R)-N-((R)-cyclopropyl(2-fluoro-4-(trifluoromethyl)phenyl)methyl)-2-((4-(trifluoromethyl)-2-pyridinyl)carbonyl)-2-azabicyclo[3.1.0]hexane-3-carboxamide], the AC1.4 was 3.224 µM.

Consider `CS(=O)(=O)c1ccc(N)c(C(=O)N2[C@@H](C(=O)N[C@@H](c3ccc(C(F)(F)F)cc3F)C3CC3)C[C@H]3C[C@H]32)c1` [Example 813, (1R,3R,5R)-2-(2-amino-5-(methylsulfonyl)benzoyl)-N-((R)-cyclopropyl(2-fluoro-4-(trifluoromethyl)phenyl)methyl)-2-azabicyclo[3.1.0]hexane-3-carboxamide], for which the AC1.4 turned out to be 0.7101 µM.

The molecule `N#CC1CN(S(=O)(=O)N2CCC[C@H](C(=O)N3CCC[C@@H]3C(=O)NCc3ccc(Cl)cc3F)C2)C1` [Example 70, N-(4-chloro-2-fluorobenzyl)-1-(((3S)-1-((3-cyano-1-azetidinyl)sulfonyl)-3-piperidinyl)carbonyl)-D-prolinamide] yielded an AC1.4 of 0.08855 µM.

On to `Cc1c(Cl)cccc1CNC(=O)[C@H]1CCCN1C(=O)[C@H]1CCCN(S(=O)(=O)N2CC(C#N)C2)C1` [Example 152, N-(3-chloro-2-methylbenzyl)-1-(((3S)-1-((3-cyano-1-azetidinyl)sulfonyl)-3-piperidinyl)carbonyl)-D-prolinamide], for which the AC1.4 was 0.2624 µM.

In the case of `N#CC1CN(S(=O)(=O)N2CCC[C@H](C(=O)N3C[C@H]4C[C@H]4[C@@H]3C(=O)NCc3ccc(C(F)(F)F)cc3)C2)C1` [Example 90, (1R,2R,5S)-3-(((3S)-1-((3-cyano-1-azetidinyl)sulfonyl)-3-piperidinyl)carbonyl)-N-(4-(trifluoromethyl)benzyl)-3-azabicyclo[3.1.0]hexane-2-carboxamide], the AC1.4 turned out to be 0.1363 µM.

As for `CN(C)c1cccc(C(=O)N2CCC[C@@H]2C(=O)N[C@@H](c2ccc(C(F)(F)F)cc2F)C2CC2)c1` [Example 584, N-((R)-cyclopropyl(2-fluoro-4-(trifluoromethyl)phenyl)methyl)-1-(3-(dimethylamino)benzoyl)-D-prolinamide], the AC1.4 came to 3.397 µM.

`N#CC1CN(S(=O)(=O)c2cccc(C(=O)N3C[C@H](F)C[C@@H]3C(=O)NCc3ccc(C(F)(F)F)cc3)c2)C1` [Example 122, (4R)-1-((3-((3-cyano-1-azetidinyl)sulfonyl)phenyl)carbonyl)-4-fluoro-N-(4-(trifluoromethyl)benzyl)-D-prolinamide]: the AC1.4 stood at 0.1858 µM.

The molecule `CN(C)S(=O)(=O)N1CCC[C@H](C(=O)N2CCC[C@@H]2C(=O)NCc2ccc(C(F)(F)F)cc2)C1` [Example 744, 1-(((3S)-1-(dimethylsulfamoyl)-3-piperidinyl)carbonyl)-N-(4-(trifluoromethyl)benzyl)-D-prolinamide] yielded an AC1.4 of 7.232 µM.

`O=C(N[C@@H](c1ccc(C(F)(F)F)cc1F)C1CC1)[C@H]1CCCN1C(=O)c1cccc(C2(F)CN(S(=O)(=O)C3COC3)C2)c1` [Example 451, N-((R)-cyclopropyl(2-fluoro-4-(trifluoromethyl)phenyl)methyl)-1-(3-(3-fluoro-1-(3-oxetanylsulfonyl)-3-azetidinyl)benzoyl)-D-prolinamide] came in with an AC1.4 of 1.8635 µM.

For the molecule `N#CC1CN(S(=O)(=O)N2CCC[C@H](C(=O)N3CCC[C@@H]3C(=O)NCc3ncc(C(F)(F)F)cc3F)C2)C1` [Example 515, 1-(((3S)-1-((3-cyano-1-azetidinyl)sulfonyl)-3-piperidinyl)carbonyl)-N-((3-fluoro-5-(trifluoromethyl)-2-pyridinyl)methyl)-D-prolinamide], the AC1.4 stood at 2.441 µM.

In turn, `CS(=O)(=O)c1ccc(NC2CCC2)c(C(=O)N2[C@@H](C(=O)N[C@@H](c3ccc(C(F)(F)F)cc3F)C3CC3)C[C@H]3C[C@H]32)c1` [Example 40, (1R,3R,5R)-2-(2-(cyclobutylamino)-5-(methylsulfonyl)benzoyl)-N-((R)-cyclopropyl(2-fluoro-4-(trifluoromethyl)phenyl)methyl)-2-azabicyclo[3.1.0]hexane-3-carboxamide] came in with an AC1.4 of 0.0398 µM.
